Columns and labels:
human endoglin = target: T1, human endoglin (Homo sapiens, UniProt P17813); settings: statement in description; cited from earlier work
T1 sequence (P17813 26-658): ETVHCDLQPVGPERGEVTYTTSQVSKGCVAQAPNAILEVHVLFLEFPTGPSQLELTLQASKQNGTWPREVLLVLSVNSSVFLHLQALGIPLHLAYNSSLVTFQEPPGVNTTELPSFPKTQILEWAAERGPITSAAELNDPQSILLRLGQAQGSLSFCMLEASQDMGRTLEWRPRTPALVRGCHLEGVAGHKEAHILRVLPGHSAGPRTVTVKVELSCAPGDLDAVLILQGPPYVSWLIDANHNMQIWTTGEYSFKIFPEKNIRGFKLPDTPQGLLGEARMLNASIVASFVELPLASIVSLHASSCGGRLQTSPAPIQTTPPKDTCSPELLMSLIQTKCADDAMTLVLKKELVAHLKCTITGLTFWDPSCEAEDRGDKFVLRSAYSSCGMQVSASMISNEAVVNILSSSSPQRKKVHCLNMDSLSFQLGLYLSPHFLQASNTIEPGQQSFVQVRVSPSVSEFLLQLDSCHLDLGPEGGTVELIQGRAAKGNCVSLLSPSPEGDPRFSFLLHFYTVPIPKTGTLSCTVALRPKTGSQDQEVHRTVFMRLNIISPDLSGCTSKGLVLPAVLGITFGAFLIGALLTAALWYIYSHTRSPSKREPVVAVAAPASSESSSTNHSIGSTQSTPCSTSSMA

[1] = system: BLM-induced pulmonary fibrosis model mice; test: Bleomycin-induced pulmonary fibrosis model; assay type: in vivo, mouse; settings: vs isotype-control antibody group (isotype-control vs disease control group); day 21; Bonferroni, P<0.05
Procedure: Pathogen-free 7 weeks old female C57BL/6J mice were obtained from Japan SLC, Inc. (Japan). At day 0, 60 mice were induced to develop pulmonary fibrosis by a single intratracheal administration of bleomycin sulphate (BLM, Nippon Kayaku, Japan) in saline at a dose of 3 mg/kg, in a volume of 50 μL per animal using Microsprayer® (Penn-Century, USA).
BLM-induced pulmonary fibrosis model mice were randomized into 4 groups of 12 mice based on the body weight on the day before the start of treatment.
Group 3 (M1043 Antibody): Twelve BLM-induced pulmonary fibrosis model mice were intravenously administered vehicle supplemented with M1043 at a dose of 10 mg/kg twice weekly at day 7, 10, 14 and 17.
Group 4 (TRC105 human/mouse chimeric antibody): Twelve BLM-induced pulmonary fibrosis model mice were intravenously administered vehicle supplemented with TRC105 at a dose of 10 mg/kg twice weekly at day 7, 10, 14 and 17.
Group 5 (BIBF1120 inhibitor for Idiopathic Pulmonary Fibrosis—positive control, Boehringer Ingelheim): Twelve BLM-induced pulmonary fibrosis model mice were orally administered 1% CMC supplemented with BIBF1120 at a dose of 100 mg/kg once daily from day 7 to 21. […]
Histological analysis of lung sections was conducted by practitioners who are not aware of the Group identity. Masson's Trichrome staining is conducted and an Ashcroft Score estimate was determined. […]

mouse endoglin [2] = target: T2, mouse endoglin (Mus musculus, UniProt Q63961); test: Inhibition of mouse BMP binding to mouse endoglin (statement, no method); settings: statement in description
T2 sequence (Q63961 27-653): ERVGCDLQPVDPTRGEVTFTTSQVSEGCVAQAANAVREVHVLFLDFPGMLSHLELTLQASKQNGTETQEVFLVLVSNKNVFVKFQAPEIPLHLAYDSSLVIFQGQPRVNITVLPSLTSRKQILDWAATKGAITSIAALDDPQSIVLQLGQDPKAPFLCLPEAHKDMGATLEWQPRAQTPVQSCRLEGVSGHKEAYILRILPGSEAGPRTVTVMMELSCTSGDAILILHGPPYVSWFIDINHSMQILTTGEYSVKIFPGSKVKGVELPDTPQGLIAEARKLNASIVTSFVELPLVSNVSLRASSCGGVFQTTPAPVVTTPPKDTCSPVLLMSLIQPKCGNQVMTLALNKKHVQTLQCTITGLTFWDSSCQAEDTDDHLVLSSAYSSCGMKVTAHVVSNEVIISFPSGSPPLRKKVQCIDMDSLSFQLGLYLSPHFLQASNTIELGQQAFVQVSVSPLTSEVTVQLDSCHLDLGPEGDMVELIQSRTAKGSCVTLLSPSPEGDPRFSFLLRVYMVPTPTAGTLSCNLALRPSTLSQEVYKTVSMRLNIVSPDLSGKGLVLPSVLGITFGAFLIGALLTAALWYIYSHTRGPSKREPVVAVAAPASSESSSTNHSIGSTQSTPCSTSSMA

NASH mice = test: Murine model of non-alcoholic steatohepatitis (NASH; STZ and high fat diet); assay type: in vivo, mouse
From the text: The purpose of this study was to examine the protective effects of endoglin antibodies on a murine model of NASH.
NASH was established by a single subcutaneous injection of STZ (Sigma, USA) after birth and feeding with a high fat diet (HFD; CLEA Japan, Japan) ad libitum after 4 weeks of age (day 28±2).
Randomization of mice into 6 groups of 10 mice was done at 9 weeks of age (day 63±2), the day before the start of treatment.
Group 3 (Positive control; Temlisartan Group): Ten NASH mice were be orally administered pure water supplemented with telmisartan at a dose of 10 mg/kg once daily from day 63 to 84.
Group 4 (Antibody M1043: M1043 Group): Ten NASH mice were intravenously administered vehicle supplemented with Antibody M1043 at a dose of 10 mg/kg twice weekly at day 63, 66, 70, 73, 77 and 80.
Group 5 (Antibody TRC105; TRC105 Group): Ten NASH mice were intravenously administered vehicle supplemented with Antibody TRC105 at a dose of 10 mg/kg twice weekly at day 63, 66, 70, 73, 77 and 80.
Group 6 (Antibody TRC205; TRC205 Group): Ten NASH mice were intravenously administered vehicle supplemented with Antibody TRC205 at a dose of 10 mg/kg twice weekly at days 63, 66, 70, 73, 77 and 80.
Mice in all groups were terminated for the following assays at 12 weeks of age.
H&E staining of liver tissue was conducted to estimate NAFLD Activity score.
Total NAS score represents the sum of scores for steatosis, lobular inflammation, and ballooning, and ranges from 0-8. Diagnosis of NASH (or, alternatively, fatty liver not diagnostic of NASH) should be made first, then NAS is used to grade activity. In the reference study, NAS scores of 0-2 occurred in cases largely considered not diagnostic of NASH, scores of 3-4 were evenly divided among those considered not diagnostic, borderline, or positive for NASH. Scores of 5-8 occurred in cases that were largely considered diagnostic of NASH.
Statistical tests were performed using Bonferroni Multiple Comparison Test. P values<0.05 were considered statistically significant.

mouse endoglin [3] = target: T3, mouse endoglin (Mus musculus, UniProt Q63961); test: Competition ELISA of mouse BMP9 against biotinylated M1043 for binding to mouse endoglin; settings: 30 μg/ml to 0.004 μg/ml competitor; biotinylated M1043 40 ng/ml
T3 construct: purchased R&D Systems 1320-EN-025
T3 sequence (Q63961 27-581 limits assumed): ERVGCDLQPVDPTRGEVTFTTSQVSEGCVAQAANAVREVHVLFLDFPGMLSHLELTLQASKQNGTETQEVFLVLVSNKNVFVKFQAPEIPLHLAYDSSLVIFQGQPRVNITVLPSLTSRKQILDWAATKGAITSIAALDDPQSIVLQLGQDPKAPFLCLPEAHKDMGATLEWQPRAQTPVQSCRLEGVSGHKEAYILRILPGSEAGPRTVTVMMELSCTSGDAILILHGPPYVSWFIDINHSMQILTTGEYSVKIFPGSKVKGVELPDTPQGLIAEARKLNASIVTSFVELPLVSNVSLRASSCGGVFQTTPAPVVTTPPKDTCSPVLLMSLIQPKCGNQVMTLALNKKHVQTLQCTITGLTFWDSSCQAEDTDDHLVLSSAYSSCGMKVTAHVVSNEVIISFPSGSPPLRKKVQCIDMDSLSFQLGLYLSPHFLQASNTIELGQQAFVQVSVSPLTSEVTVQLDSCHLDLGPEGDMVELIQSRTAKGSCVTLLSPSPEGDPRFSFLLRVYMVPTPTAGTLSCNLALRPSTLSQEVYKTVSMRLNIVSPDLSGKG
Procedure: The ability of mouse BMP9 to compete with the rat antibody M1043 for binding to mouse endoglin was determined by competition ELISA as follows: 200 μg of M1043 antibody was biotinylated with a Lightning-Link biotinylation kit (Innova Biosciences, Cat. No. 704-0010) according to the manufacturers recommendations. Nunc Immuno MaxiSorp 96 well flat bottom plates (Fisher Cat. No. DIS-971-030J) were coated with mouse endoglin (R&D Systems, Cat. No. 1320-EN-025) at 1 μg/ml in PBS overnight at 4° C. The following day the plate was washed three times with PBST before blocking with PBST/3% Marvel at room temperature for 1 hour. A threefold dilution series (30 μg/ml to 0.004 μg/ml) of mouse BMP9 (R&D Systems, Cat. No. 5566-BP-010) or an irrelevant rat IgG1 was mixed with a fixed concentration of biotinylated M1043 (40 ng/ml), added to the plate and incubated for 1 hour at room temperature. Binding of the biotinylated antibody was detected via streptavidin-HRP (Sigma, Cat. No. 55512) and TMB substrate (Sigma, Cat. No. T0440). OD450 nm values were measured on a Dynex MRX TCII plate reader.

[4] = liver gene expression, mean ± SD, Normal-Vehicle 1.0

TRC105: human murine chimeric IgG1 monoclonal antibody that binds endoglin; VL/VH SEQ ID NOS. 1 and 39
Effect on human BMP binding to human endoglin (human endoglin): competitively inhibits human BMP binding | Ashcroft score, comparison between groups [1]: significantly lower | Effect on mouse BMP binding to mouse endoglin (mouse endoglin [2]): dose not prevent the binding of mouse BMP to mouse endoglin | Liver triglyceride contents compared with the NASH-Vehicle group (NASH mice; Bonferroni, P<0.05): tended to decrease | NAS compared with the NASH-Vehicle group (NASH mice; Bonferroni, P<0.05): tended to decrease in NAS | Serum alanine aminotransferase (ALT) levels compared with the NASH-Vehicle group (NASH mice; Bonferroni, P<0.05): no significant difference | Serum alkaline phosphatase (ALP) levels compared with the NASH-Vehicle group (NASH mice; Bonferroni, P<0.05): tended to decrease | Tissue inhibitor of metalloproteinase-1 mRNA expression levels compared with the NASH-Vehicle group (NASH mice; Bonferroni, P<0.05): significantly up-regulated | Tumor necrosis factor-alpha mRNA expression levels compared with the NASH-Vehicle group (NASH mice; Bonferroni, P<0.05): significantly up-regulated | F4/80-positive signals and cells in liver compared with the NASH-Vehicle group (NASH mice; F4/80 immunostaining, macrophage marker): Lower F4/80-positive signals and positive cells | Alpha-SMA mRNA expression (NASH mice; [4]): 1.7 ± 0.7 | MCP-1 mRNA expression (NASH mice; [4]): 5.7 ± 4.2 | TIMP-1 mRNA expression (NASH mice; [4]): 25.4 ± 23.0 | TNF-α mRNA expression (NASH mice; [4]): 12.9 ± 9.5 | Liver triglyceride (NASH mice; mean ± SD): 31.1 ± 20.3 mg/g liver | Serum ALP (NASH mice; mean ± SD): 291 ± 119 U/L | Serum ALT (NASH mice; mean ± SD): 62 ± 57 U/L | Serum AST (NASH mice; mean ± SD): 204 ± 205 U/L | Sirius red-positive area (NASH mice; mean ± SD, liver sections): 0.92 ± 0.20% | NAS (NAFLD Activity score) (NASH mice; mean ± SD, range 0-8, 10 mg/kg): 4.4 ± 1.4 | Steatosis score 0, number of mice (NASH mice; score 0 = <5%, 12 weeks of age): 1 | Hepatocyte ballooning score 0, number of mice (NASH mice; score 0 = None): 3 | Steatosis score 1, number of mice (NASH mice; score 1 = 5-33%): 6 | Lobular inflammation score 1, number of mice (NASH mice; score 1 = <2 foci/200x): 1 | Lobular inflammation score 2, number of mice (NASH mice; score 2 = 2-4 foci/200x): 5 | Steatosis score 2, number of mice (NASH mice; score 2 = >33-66%): 1 | Hepatocyte ballooning score 2, number of mice (NASH mice; score 2 = Many cells/prominent ballooning): 5 | Lobular inflammation score 3, number of mice (NASH mice; score 3 = >4 foci/200x): 2

B1: mouse BMP9: mouse BMP9 (R&D Systems, Cat. No. 5566-BP-010), endoglin ligand (protein)
chain: STGASSHCQKTSLRVNFEDIGWDSWIIAPKEYDAYECKGGCFFPLADDVTPTKHAIVQTLVHLKFPTKVGKACCVPTKLSPISILYKDDMGVPTLKYHYEGMSVAECGCR
Competition with biotinylated M1043 for binding to mouse endoglin (mouse endoglin [3]): competed with biotinylated M1043 for binding to mouse endoglin
